Results: US20060069132A1, “Azolecarboxamide herbicides” (priority 2004, published 2006)

Experiments:
rice [1] = experiment: Test B flooded paddy test; type: in vivo, Oryza sativa; conditions: 1000 g ai/ha, visual rating, scale 0 to 100 (0 no effect, 100 complete control), 13 to 15 days
Procedure, shortened: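 Postemergence plants were sprayed with formulated test chemicals at 2 to 18 cm height (1- to 4-leaf stage); paddy species were grown to the 2-leaf stage. After 13 to 15 days in a greenhouse, injury was rated visually against untreated controls on a 0–100 scale (0 = no effect, 100 = complete control).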

[2] = test system: smallflower umbrella sedge; experiment: Test C flooded paddy test; type: in vivo, Cyperus difformis
corn = experiment: Test B pre-/postemergence herbicide test; type: in vivo, Zea mays; conditions: for Corn plant response rating: postemergence, scale 0 (no effect) to 100 (complete control)
Procedure, shortened: (§1)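 Response was scored visually 13 to 15 days after treatment against untreated greenhouse controls, 0 meaning no effect and 100 complete control. Formulations (solvent mixture plus surfactant) went onto soil after planting, onto foliage of 1- to 4-leaf plants, and onto 2-leaf plants in a flooded paddy set including rice and barnyardgrass.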

barnyardgrass [3] = experiment: Test B flooded paddy test; type: in vivo, Echinochloa crus-galli; conditions: 1000 g ai/ha, visual rating, scale 0 to 100 (0 no effect, 100 complete control), 13 to 15 days
Procedure, shortened: (§2)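 Visual control ratings, 0–100 versus untreated controls, taken after 13 to 15 days in the greenhouse. Blackgrass received a postemergence spray at the 1- to 4-leaf stage (2–18 cm); ducksalad, umbrella sedge and barnyardgrass were flooded-paddy treated at 2 leaves.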

ducksalad [4] = experiment: Test B flooded paddy test; type: in vivo, Heteranthera limosa; conditions: 1000 g ai/ha, visual rating, scale 0 to 100 (0 no effect, 100 complete control), 13 to 15 days
Procedure, shortened: as §2

velvetleaf = experiment: Test B pre-/postemergence herbicide test; type: in vivo, Abutilon theophrasti; conditions: for Velvetleaf plant response rating: postemergence, scale 0 (no effect) to 100 (complete control)
Procedure, shortened: as §1

Surinam grass = experiment: Test B pre-/postemergence herbicide test; type: in vivo, Urochloa decumbens; conditions: for Surinam Grass plant response rating: postemergence, scale 0 (no effect) to 100 (complete control)
Procedure, shortened: as §1

giant foxtail = experiment: Test B pre-/postemergence herbicide test; type: in vivo, Setaria faberi; conditions: for Foxtail, Giant plant response rating: postemergence, scale 0 (no effect) to 100 (complete control)
Procedure, shortened: as §1

[5] = test system: small flower umbrella sedge; experiment: Test B flooded paddy test; type: in vivo, Cyperus difformis; conditions: 1000 g ai/ha, visual rating, scale 0 to 100 (0 no effect, 100 complete control), 13 to 15 days
Procedure, shortened: as §2

ducksalad [6] = experiment: Test C flooded paddy test; type: in vivo, Heteranthera limosa
cocklebur = experiment: Test B pre-/postemergence herbicide test; type: in vivo, Xanthium strumarium; conditions: for Cocklebur plant response rating: postemergence, scale 0 (no effect) to 100 (complete control)
Procedure, shortened: as §1

rice [7] = experiment: Test B pre-/postemergence herbicide test; type: in vivo, Oryza sativa; conditions: 0 = no effect, 100 = complete control, preemergence
Procedure, shortened: as §1

large crabgrass = experiment: Test B pre-/postemergence herbicide test; type: in vivo, Digitaria sanguinalis; conditions: for Crabgrass, Large plant response rating: postemergence, scale 0 (no effect) to 100 (complete control)
Procedure, shortened: as §1

blackgrass = experiment: Test B postemergence herbicide test; type: in vivo, Alopecurus myosuroides; conditions: postemergence, visual rating, scale 0 (no effect) to 100 (complete control)
Procedure, shortened: as §2

morningglory = experiment: Test B pre-/postemergence herbicide test; type: in vivo, Ipomoea coccinea; conditions: for Morningglory plant response rating: postemergence, scale 0 (no effect) to 100 (complete control)
Procedure, shortened: as §1

pigweed = experiment: Test B pre-/postemergence herbicide test; type: in vivo, Amaranthus retroflexus; conditions: for Pigweed plant response rating: postemergence, scale 0 (no effect) to 100 (complete control)
Procedure, shortened: as §1

rice [8] = experiment: Test C flooded paddy test; type: in vivo, Oryza sativa
Procedure, shortened: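 Injury scored visually against controls on a 0 (no effect) to 100 (complete control) scale, 12 to 14 days after treatment in greenhouse. Flooded paddy plants treated at 2-leaf stage; postemergence plants at 1- to 4-leaf stage, 2 to 18 cm tall.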

barnyardgrass [9] = experiment: Test B pre-/postemergence herbicide test; type: in vivo, Echinochloa crus-galli; conditions: for Barnyardgrass plant response rating: postemergence, scale 0 (no effect) to 100 (complete control)
Procedure, shortened: as §1

lambsquarters = experiment: Test B pre-/postemergence herbicide test; type: in vivo, Chenopodium album; conditions: for Lambsquarters plant response rating: postemergence, visual rating, scale 0 (no effect) to 100 (complete control)
Procedure, shortened: as §1

barnyardgrass [10] = experiment: Test C flooded paddy test; type: in vivo, Echinochloa crus-galli
Procedure, shortened: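 Greenhouse test with a 12–14 day hold after application and visual comparison with controls. Emerged plants were 1- to 4-leaf stage (2–18 cm) when sprayed postemergence, and the paddy barnyardgrass was at 2 leaves under flooded conditions. 100 = complete control.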

wheat = experiment: Test B postemergence herbicide test; type: in vivo, Triticum aestivum; set-up: key to Wheat plant response rating: 0 = no effect, 100 = complete control; conditions: postemergence, visual rating, scale 0 (no effect) to 100 (complete control)
Procedure, shortened: (§3)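 Formulated test chemicals went onto postemergence plants measuring 2 to 18 cm, at one to four leaves. For the paddy assay, species had reached two leaves. Scoring took place 13–15 days later by eye, relative to untreated plants, using 0 for no effect up to 100 for full control.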

wild oat = experiment: Test B postemergence herbicide test; type: in vivo, Avena fatua; conditions: postemergence, visual rating, scale 0 (no effect) to 100 (complete control)
Procedure, shortened: as §3

[11] = 62 g ai/ha, scale 0 to 100 (0 no effect, 100 complete control)
[12] = 125 g ai/ha, scale 0 to 100 (0 no effect, 100 complete control)
[13] = 250 g ai/ha, scale of 0 to 100, 0 is no effect, 100 is complete control
[14] = 500 g ai/ha, visual rating after 12 to 14 days, scale 0 to 100 (0 no effect, 100 complete control)
[15] = 125 g ai/ha, 0 = no effect, 100 = complete control, preemergence
[16] = 500 g ai/ha, visual rating, 0 = no effect, 100 = complete control, preemergence

Compound: CCc1nc(C(C)(C)C)sc1C(=O)Nc1cc(C(=O)N(C)C)ccc1F [Compound 225]
- Rice plant response rating (rice [1]): 90
- Sedge, Umbrella plant response rating [2, 11]: 65
- Sedge, Umbrella plant response rating [2, 12]: 75
- Sedge, Umbrella plant response rating [2, 13]: 75
- Plant response rating, Sedge, Umbrella [2, 14]: 80
- Corn plant response rating (0 to 100 scale) (corn; [15]): 30
- Plant response rating, Corn (corn; [16]): 70
- Corn plant response rating (corn; 125 g ai/ha, visual rating): 10
- Corn plant response rating (corn; 500 g ai/ha, visual rating): 20
- Barnyardgrass plant response rating (barnyardgrass [3]): 90
- Ducksalad plant response rating (ducksalad [4]): 90
- Velvetleaf plant response rating (0 to 100 scale) (velvetleaf; [15]): 30
- Plant response rating, Velvetleaf (velvetleaf; [16]): 100
- Velvetleaf plant response rating (velvetleaf; 125 g ai/ha, visual rating): 30
- Velvetleaf plant response rating (velvetleaf; 500 g ai/ha, visual rating): 40
- Surinam Grass plant response rating (0 to 100 scale) (Surinam grass; [15]): 20
- Plant response rating, Surinam Grass (Surinam grass; [16]): 90
- Surinam Grass plant response rating (Surinam grass; 125 g ai/ha, visual rating): 10
- Surinam Grass plant response rating (Surinam grass; 500 g ai/ha, visual rating): 20
- Foxtail, Giant plant response rating (0 to 100 scale) (giant foxtail; [15]): 60
- Plant response rating, Foxtail, Giant (giant foxtail; [16]): 100
- Foxtail, Giant plant response rating (giant foxtail; 125 g ai/ha, visual rating): 10
- Foxtail, Giant plant response rating (giant foxtail; 500 g ai/ha, visual rating): 20
- Sedge, Umbrella plant response rating [5]: 90
- Ducksalad plant response rating (ducksalad [6]; [11]): 10
- Ducksalad plant response rating (ducksalad [6]; [12]): 75
- Ducksalad plant response rating (ducksalad [6]; [13]): 85
- Plant response rating, Ducksalad (ducksalad [6]; [14]): 85
- Cocklebur plant response rating (0 to 100 scale) (cocklebur; [15]): 0
- Plant response rating, Cocklebur (cocklebur; [16]): 40
- Cocklebur plant response rating (cocklebur; 125 g ai/ha, visual rating): 20
- Cocklebur plant response rating (cocklebur; 500 g ai/ha, visual rating): 20
- Rice plant response rating (0 to 100 scale) (rice [7]; 125 g ai/ha): 60
- Plant response rating, Rice (rice [7]; 500 g ai/ha, visual rating): 90
- Crabgrass, Large plant response rating (0 to 100 scale) (large crabgrass; [15]): 10
- Plant response rating, Crabgrass, Large (large crabgrass; [16]): 100
- Crabgrass, Large plant response rating (large crabgrass; 125 g ai/ha, visual rating): 10
- Crabgrass, Large plant response rating (large crabgrass; 500 g ai/ha, visual rating): 20
- Blackgrass plant response rating (blackgrass; 125 g ai/ha): 20
- Blackgrass plant response rating (blackgrass; 500 g ai/ha): 40
- Morningglory plant response rating (0 to 100 scale) (morningglory; [15]): 0
- Plant response rating, Morningglory (morningglory; [16]): 10
- Morningglory plant response rating (morningglory; 125 g ai/ha, visual rating): 10
- Morningglory plant response rating (morningglory; 500 g ai/ha, visual rating): 40
- Pigweed plant response rating (0 to 100 scale) (pigweed; [15]): 70
- Plant response rating, Pigweed (pigweed; [16]): 100
- Pigweed plant response rating (pigweed; 125 g ai/ha, visual rating): 40
- Pigweed plant response rating (pigweed; 500 g ai/ha, visual rating): 70
- Rice plant response rating (rice [8]; [11]): 55
- Rice plant response rating (rice [8]; [12]): 70
- Rice plant response rating (rice [8]; [13]): 75
- Plant response rating, Rice (rice [8]; [14]): 80
- Barnyardgrass plant response rating (0 to 100 scale) (barnyardgrass [9]; [15]): 60
- Plant response rating, Barnyardgrass (barnyardgrass [9]; [16]): 90
- Barnyardgrass plant response rating (barnyardgrass [9]; 125 g ai/ha, visual rating): 10
- Barnyardgrass plant response rating (barnyardgrass [9]; 500 g ai/ha, visual rating): 30
- Lambsquarters plant response rating (0 to 100 scale) (lambsquarters; [15]): 80
- Lambsquarters plant response rating (lambsquarters; 125 g ai/ha): 50
- Lambsquarters plant response rating (lambsquarters; 500 g ai/ha): 70
- Barnyardgrass plant response rating (barnyardgrass [10]; [11]): 35
- Barnyardgrass plant response rating (barnyardgrass [10]; [12]): 60
- Barnyardgrass plant response rating (barnyardgrass [10]; [13]): 80
- Plant response rating, Barnyardgrass (barnyardgrass [10]; [14]): 90
- Wheat plant response rating (wheat; 125 g ai/ha): 10
- Wheat plant response rating (wheat; 500 g ai/ha): 30
- Oat, Wild plant response rating (wild oat; 125 g ai/ha): 0
- Oat, Wild plant response rating (wild oat; 500 g ai/ha): 30
